Measurements as given in PubChem BioAssay (NCI).
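Test compounds were applied to cells in 96-well plates for 48 hours at 5 doses. The concentration for full growth arrest is given as TGI.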

Legend:
Experiment in all cases: DTP human tumour cell line panel, 48 h
DLD-1 colon = tested on: DLD-1 colon
DMS 114 small cell lung = tested on: DMS 114 small cell lung
DMS 273 small cell lung = tested on: DMS 273 small cell lung
HOP-18 NSCLC = tested on: HOP-18 NSCLC
KM20L2 colon = tested on: KM20L2 colon
LXFL 529 NSCLC = tested on: LXFL 529 NSCLC
M19-MEL melanoma = tested on: M19-MEL melanoma
SNB-78 CNS = tested on: SNB-78 CNS
XF 498 CNS = tested on: XF 498 CNS
RXF-631 renal = tested on: RXF-631 renal

| Structure (SMILES) | TGI (DLD-1 colon) | TGI (DMS 114 small cell lung) | TGI (DMS 273 small cell lung) | TGI (HOP-18 NSCLC) | TGI (KM20L2 colon) | TGI (LXFL 529 NSCLC) | TGI (M19-MEL melanoma) | TGI (SNB-78 CNS) | TGI (XF 498 CNS) | TGI (RXF-631 renal) |
| --- | --- | --- | --- | --- | --- | --- | --- | --- | --- | --- |
| C[C@@H]1C2=CC[C@@]3(C)C(CCC3[C@H](C)[C@H]3C[C@@]4(C)O[C@@](c5cccnc5)(O3)OC4(C)C)[C@@H]2C2OC2[C@@]12CCC(=O)O2 (stereo not given in full) | > 100 µM | > 100 µM | > 100 µM | 87.1 µM | 96.2 µM | > 100 µM | > 100 µM | > 100 µM | – | – |
| NCCCCC(=O)c1cccnc1 | > 100 µM | > 100 µM | > 100 µM | > 100 µM | > 100 µM | > 100 µM | > 100 µM | > 100 µM | > 100 µM | – |
| Cc1cc(=O)[nH]c(NNC(C#N)c2c(O)ccc3ccccc23)n1 (stereo not given) | 24.7 µM | 5.81 µM | 18.7 µM | > 100 µM | 95.7 µM | 47 µM | 25 µM | > 100 µM | – | – |
| CCOC(=O)[C@H]1Nc2ccc([N+](=O)[O-])cc2C2c3ccccc3CC21 (stereo not given in full) | > 100 µM | 54 µM | 34.9 µM | – | 54 µM | 49.3 µM | 70.7 µM | > 100 µM | 82.7 µM | – |
| COc1ccc2c(c1)CC1c3c(ccc(OC)c3O)CC2N1C (stereo not given) | > 100 µM | 38.8 µM | 45.2 µM | > 100 µM | > 70 µM | 39 µM | 56.9 µM | 97 µM | 62.3 µM | 47.1 µM |
| O=c1c(NO)c([N+](=O)[O-])cnn1-c1ccccc1 | 10.2 µM | 35.3 µM | 13.4 µM | 37.5 µM | 18.3 µM | 3.17 µM | 12.2 µM | 39.2 µM | 8.38 µM | 6.18 µM |
| O=S(=O)([O-])[O-].[Cl-].[NH2-].[NH2-].[NH2-].[NH2-].[Ru+3].c1ccncc1 | > 100 µM | – | > 100 µM | – | > 100 µM | > 100 µM | – | – | – | – |
| CN(C)CC1CCCCCCCCCC(CN(C)C)C1=O (stereo not given) | > 100 µM | > 100 µM | > 100 µM | > 100 µM | > 100 µM | > 100 µM | > 100 µM | > 100 µM | > 100 µM | > 100 µM |
| NC(=O)N/N=C(/Cc1nc2ccc(C(=O)c3ccccc3)cc2[nH]c1=O)C(=O)Nc1ccc(C(F)(F)F)cc1[N+](=O)[O-] | > 100 µM | > 100 µM | > 100 µM | > 100 µM | > 100 µM | > 100 µM | > 100 µM | > 100 µM | > 100 µM | > 100 µM |
| CC1(S)CC2C(CC1Sc1ccccc1)C2(C)C (stereo not given) | > 100 µM | > 100 µM | > 100 µM | > 100 µM | – | > 100 µM | > 100 µM | > 100 µM | > 100 µM | – |
| CC1(C)OCC([C@H]2CC23SCCCS3)O1 (stereo not given in full) | > 100 µM | > 100 µM | > 100 µM | > 100 µM | > 100 µM | > 100 µM | – | > 100 µM | > 100 µM | – |
| Cc1cnc2c(c1)C(=O)C1=C(OC(C)(C)CC1O)C2=O (stereo not given) | 33.5 µM | 22.4 µM | 25.4 µM | 29.3 µM | 32.5 µM | 29.9 µM | 9.86 µM | – | 34 µM | – |
| CC(=O)C(CN(C)C)C(c1ccccc1)c1c(O)c2ccccc2oc1=O (stereo not given) | > 100 µM | > 100 µM | > 100 µM | > 100 µM | > 100 µM | > 100 µM | > 100 µM | > 100 µM | > 100 µM | – |
| O=S(=O)(c1ccccc1)n1cc(C[P+](c2ccccc2)(c2ccccc2)c2ccccc2)c2ccccc21 | 11 µM | 14.4 µM | 10.2 µM | – | 16.6 µM | 8.26 µM | 15.9 µM | 20.7 µM | 12.1 µM | – |
| CNS(=O)(=O)NN(C)S(=O)(=O)c1ccc2ccccc2c1 | > 100 µM | > 100 µM | > 100 µM | – | > 100 µM | > 100 µM | > 100 µM | – | – | > 100 µM |
| O=C(Nc1cc(Cl)cc(Cl)c1)/C(Cc1nc2ccccc2[nH]c1=O)=N/NC(=O)c1ccncc1 | > 100 µM | > 100 µM | – | – | > 100 µM | > 100 µM | > 100 µM | > 100 µM | – | > 100 µM |
| CCCCCCCCCCCCCCCC(=O)OCC1OC(OC)C2NP(=O)(N(CCCl)CCCl)OC1C2O (stereo not given) | 14.5 µM | 9.31 µM | 5.09 µM | 33.6 µM | 46.7 µM | 8.06 µM | > 75.3 µM | 19.2 µM | 7.83 µM | 25.7 µM |
| CCCCN[C@H]1C2C3CC4C5CC(C42)C1(C)C53 (stereo not given in full) | > 100 µM | > 100 µM | > 100 µM | > 100 µM | > 100 µM | > 100 µM | > 100 µM | > 100 µM | – | – |
